The term IC50 denotes the point on the concentration scale where inhibition reaches its midpoint. As a reminder, the inhibition in vivo is the percentage by which the read-out fell short of the control. Higher therefore signals a response far below the control. Usually ED50 stands for the dose at which the effect has come halfway, by size or by number of responders. A high value points to a need for a large dose.

Structures are written as SMILES.

From ChEMBL document CHEMBL1127849, “Benzisoxazole- and benzisothiazole-3-carboxamides as potential atypical antipsychotic agents” (J Med Chem, 1994) come the findings set out here.

Test [1] concerns the target T1, 5-hydroxytryptamine receptor 1A (Rattus norvegicus, UniProt P19327).
T1 sequence (P19327 whole entry): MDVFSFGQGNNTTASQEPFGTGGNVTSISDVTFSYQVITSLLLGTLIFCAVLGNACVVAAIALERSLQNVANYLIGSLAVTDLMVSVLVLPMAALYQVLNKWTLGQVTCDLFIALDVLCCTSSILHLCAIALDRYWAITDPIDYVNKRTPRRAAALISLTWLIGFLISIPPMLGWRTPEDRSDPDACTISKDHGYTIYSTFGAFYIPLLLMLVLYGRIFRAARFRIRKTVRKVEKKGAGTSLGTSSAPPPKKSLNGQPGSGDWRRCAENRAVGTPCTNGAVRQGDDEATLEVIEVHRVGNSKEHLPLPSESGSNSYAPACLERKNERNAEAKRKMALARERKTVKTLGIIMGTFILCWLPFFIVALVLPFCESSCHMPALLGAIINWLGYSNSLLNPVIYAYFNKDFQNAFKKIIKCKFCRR
The test is described as follows: In vitro affinity towards 5-hydroxytryptamine 1A receptor using [3H]8-OH-DPAT as radioligand in hippocampus. Type of test: tissue-based.

For test [2], the target named is T2, Adrenergic receptor alpha-1 (Rattus norvegicus, UniProt P15823+P23944+P43140).
T2 sequence (P15823 whole entry): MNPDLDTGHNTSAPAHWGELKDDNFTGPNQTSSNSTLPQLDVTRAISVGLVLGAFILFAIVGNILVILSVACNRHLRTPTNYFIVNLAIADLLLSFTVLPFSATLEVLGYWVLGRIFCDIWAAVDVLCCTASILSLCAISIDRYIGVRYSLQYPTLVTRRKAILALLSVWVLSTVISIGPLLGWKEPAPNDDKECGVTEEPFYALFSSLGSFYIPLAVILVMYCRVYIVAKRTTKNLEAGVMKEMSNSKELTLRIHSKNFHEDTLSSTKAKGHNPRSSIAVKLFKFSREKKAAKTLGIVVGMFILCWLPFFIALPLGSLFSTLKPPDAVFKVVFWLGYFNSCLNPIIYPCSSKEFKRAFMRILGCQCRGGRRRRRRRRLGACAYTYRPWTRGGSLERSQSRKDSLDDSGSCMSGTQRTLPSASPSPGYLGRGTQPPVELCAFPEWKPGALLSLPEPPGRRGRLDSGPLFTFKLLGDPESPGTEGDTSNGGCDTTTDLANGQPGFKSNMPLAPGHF
T2 sequence (P23944 whole entry): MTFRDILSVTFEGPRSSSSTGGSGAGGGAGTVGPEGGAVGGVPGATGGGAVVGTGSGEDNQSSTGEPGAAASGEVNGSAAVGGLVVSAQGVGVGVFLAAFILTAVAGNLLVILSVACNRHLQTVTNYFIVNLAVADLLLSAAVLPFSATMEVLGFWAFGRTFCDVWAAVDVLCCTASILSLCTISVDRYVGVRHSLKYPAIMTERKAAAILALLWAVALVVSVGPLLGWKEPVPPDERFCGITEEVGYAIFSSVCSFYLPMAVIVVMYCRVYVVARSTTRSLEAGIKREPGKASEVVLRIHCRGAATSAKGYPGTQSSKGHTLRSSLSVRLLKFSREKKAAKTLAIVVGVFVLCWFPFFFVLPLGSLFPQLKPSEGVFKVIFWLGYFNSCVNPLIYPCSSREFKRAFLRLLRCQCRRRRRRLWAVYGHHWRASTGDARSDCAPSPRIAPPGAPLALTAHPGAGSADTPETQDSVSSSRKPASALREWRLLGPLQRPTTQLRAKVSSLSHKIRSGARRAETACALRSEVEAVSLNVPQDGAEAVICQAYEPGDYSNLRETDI
T2 sequence (P43140 whole entry): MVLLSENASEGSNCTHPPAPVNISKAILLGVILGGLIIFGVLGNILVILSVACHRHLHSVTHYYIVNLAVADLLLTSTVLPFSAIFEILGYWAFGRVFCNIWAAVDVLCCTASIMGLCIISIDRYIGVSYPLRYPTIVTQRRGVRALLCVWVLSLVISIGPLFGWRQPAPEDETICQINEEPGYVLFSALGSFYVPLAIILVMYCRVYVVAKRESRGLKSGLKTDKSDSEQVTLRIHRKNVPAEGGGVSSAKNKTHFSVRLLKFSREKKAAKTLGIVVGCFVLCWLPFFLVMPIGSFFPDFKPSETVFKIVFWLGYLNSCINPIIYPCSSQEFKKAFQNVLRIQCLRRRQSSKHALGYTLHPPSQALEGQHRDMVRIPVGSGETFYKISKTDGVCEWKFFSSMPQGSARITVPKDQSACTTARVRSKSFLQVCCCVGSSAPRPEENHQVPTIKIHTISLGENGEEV
The test is described as follows: Its affinity towards alpha-1 receptor using [3H]WB-4101 as radioligand in whole brain minus cerebellum. The test is classed as tissue-based.

For test [3], the system named is Rattus norvegicus. The test is described as follows: Compound was evaluated in vivo for its antipsychotic activity for inhibition of apomorphine-induced stereotypy in rat after intraperitoneal administration at a dose of 40 mg/kg. Particulars: ip. Type of test: functional.
The target in test [4] is 5-hydroxytryptamine receptor 2A (Rattus norvegicus, UniProt P14842). The test is described as follows: In vitro affinity towards 5-hydroxytryptamine 2A receptor using [3H]spiroperidol as radioligand in cortex.
The subject of test [5] is Mus musculus. The test is described as follows: In vivo effective dose for inhibition of apomorphine-induced climbing in mice after intraperitoneal administration at a dose 20 mg/kg. Particulars: ip. The test is classed as functional.
The test system of test [6] is Rattus norvegicus. The test is described as follows: Compound evaluated in vivo for its antipsychotic activity for inhibition of apomorphine-induced stereotypy in rat after intraperitoneal administration of a dose of 13 mg/kg. Type of test: functional. The settings on record: ip.
The test system of test [7] is Mus musculus. Description: In vivo for its effective dose for inhibition of apomorphine-induced climbing in mice after intraperitoneal administration at a dose 20 mg/kg. Type of test: functional. Particulars: ip.
The test system of test [8] is Rattus norvegicus. Description: Compound was evaluated in vivo for its antipsychotic activity for inhibition of apomorphine-induced stereotypy in rat. Type of test: functional.

Chain of 5-hydroxytryptamine receptor 2A (P14842 whole entry): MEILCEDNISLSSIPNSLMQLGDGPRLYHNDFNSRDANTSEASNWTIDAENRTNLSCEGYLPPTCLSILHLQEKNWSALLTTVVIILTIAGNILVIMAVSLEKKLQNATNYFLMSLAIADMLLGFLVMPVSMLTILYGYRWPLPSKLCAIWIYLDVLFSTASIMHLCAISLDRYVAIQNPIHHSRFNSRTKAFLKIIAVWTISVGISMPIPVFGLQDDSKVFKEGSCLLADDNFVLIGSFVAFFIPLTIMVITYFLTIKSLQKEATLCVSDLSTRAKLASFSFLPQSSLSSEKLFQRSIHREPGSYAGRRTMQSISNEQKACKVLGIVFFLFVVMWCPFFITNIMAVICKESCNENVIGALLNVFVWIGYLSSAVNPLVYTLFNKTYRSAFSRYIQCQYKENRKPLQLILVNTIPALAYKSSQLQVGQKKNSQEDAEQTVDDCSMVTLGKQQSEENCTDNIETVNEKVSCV

Consider `O=C(NCCCCN1CCN(c2nsc3ccccc23)CC1)c1nsc2ccccc12`, for which the IC50 in test [1] was found to be 18 nM; in test [2] it was 5 nM; in test [4], 201 nM. Moreover, in test [3], at 40 mg/kg the inhibition in vivo was 17%.
For `CN(CCN1CCC(c2noc3cc(F)ccc23)CC1)C(=O)c1nsc2ccccc12`, the IC50 was 820 nM in test [1], 9.4 nM in test [2] and 32.8 nM in test [4]. The molecule also returned an ED50 in test [5] of 1.7 mg/kg. In test [6], testing at 13 mg/kg gave an inhibition in vivo of 50%.
Turning to `CN(CCCCN1CCN(c2nsc3ccccc23)CC1)C(=O)c1nsc2ccccc12`, the results for the IC50 in test [1], in test [2] and in test [4] were 18.6 nM, 5.8 nM and 13 nM, respectively. The ED50 in test [7] was found to be 2.49 mg/kg; in test [8], 39.2 mg/kg.
